Structures can show the parent of a compound that is named as a salt. Where two headings read alike, the source gives them in different places.
Legend:
[1] = system: MCF-7 breast cancer cells; assay: SRB cell viability assay, MCF-7; assay type: cell-based; conditions: Homo sapiens, MCF7, MCF-7, Breast (ER+ PR+)
Description: (§1) The effect of OSC inhibition was evaluated in additional cancer cell lines as well. Cancer cell lines may be purchased from ATCC (Manassas, Va.). The SRB assay has been employed for determination of the inhibitory effects of RO 48-8071 on growth of different cancer cells. Cells were seeded into 96-well plates and incubated overnight at 37° C. with 5% CO2. The culture medium was removed after 24 hours, and cells were washed with DMEM/F12 medium and then treated with various concentrations of RO 48-8071 in 5% FBS culture medium for 24 and 48 hours. Surviving or adherent cells were fixed in situ by withdrawing the growth medium, adding 100 μl PBS and 100 μl 50% trichloroacetic acid and then incubating at 4° C. for one hour. Cells were washed with ice-cold water, dried at room temperature (RT), and then stained with 50 μl 4% SRB for eight minutes at RT. Unbound dye was removed by washing with cold 1% acetic acid for five times, and plates were dried at RT. Bound stain was solubilized with 150 μl 10 mM Tris buffer and absorbance of samples was read at 520 nm with a SpecTRA MAX 190 microplate reader (Molecular Devices, Sunnyvale, Calif.). Six wells were used for each concentration, and each experiment was performed two to three times.
Effect of RO 48-8071 on breast cancer cell line MCF-7 viability. […]

[2] = system: HCC-1428 breast cancer cells; assay: SRB cell viability assay, HCC-1428; assay type: cell-based; conditions: Homo sapiens, HCC1428, HCC-1428, Breast (ER+ PR+)
Description: as §1
(§2) Effect of RO 48-8071 on estrogen, progesterone, and HER-2/neu receptors positive breast cancer cell line HCC-1428 and ZR-75 viability. […]

[3] = system: ZR-75 breast cancer cells; assay: SRB cell viability assay, ZR-75; assay type: cell-based; conditions: ZR75, ZR-75, Breast (ER+ PR+)
Description: as §1, §2

[4] = system: BT-20 breast cancer cells; assay: SRB cell viability assay, BT-20; assay type: cell-based; conditions: Homo sapiens, BT-20, Breast (triple negative)
Description: as §1
Effect of RO 48-8071 on estrogen, progesterone, and HER-2/neu receptors negative breast cancer cell line MDA-231 and BT-20 viability. […]

[5] = system: PC-3 prostate cancer cells; assay: SRB cell viability assay, PC-3; assay type: cell-based; conditions: Homo sapiens
Description: as §1
Effect of RO 48-8071 on prostate cancer cell line PC-3 viability. […]

[6] = system: DU145 prostate cancer cells; assay: SRB cell viability assay, DU145; assay type: cell-based; conditions: Homo sapiens
Description: as §1
Effect of RO 48-8071 on prostate cancer cell line DU145 viability. […] The culture mediums employed 10% FBS EMEM for culture and 5% FBS EMEM for treatment.

[7] = system: DLD-1 colon cancer cells; assay: SRB cell viability assay, DLD-1; assay type: cell-based; conditions: Homo sapiens
Description: as §1
Effect of RO 48-8071 on colon cancer cell line DLD-1 viability. […] The culture mediums employed 10% FBS RPMI-1640 for culture and 5% FBS RPMI-1640 for treatment.

[8] = system: NCI-H23 lung cancer cells; assay: SRB cell viability assay, NCI-H23; assay type: cell-based; conditions: Homo sapiens
Description: as §1
Effect of RO 48-8071 on lung cancer cell line H23 viability. […] The culture mediums employed 10% FBS RPMI-1640 for culture and 5% FBS RPMI-1640 for treatment.

[9] = system: A549 lung cancer cells; assay: SRB cell viability assay, A549; assay type: cell-based; conditions: Homo sapiens
Description: as §1
Effect of RO 48-8071 on lung cancer cell line A549 viability. […] The culture mediums employed 10% FBS F-12K for culture and 5% FBS F-12K for treatment.

[10] = system: OV-CAR-3 ovarian cancer cells; assay: SRB cell viability assay, OV-CAR-3; assay type: cell-based; conditions: Homo sapiens, OVCAR-3, OV-CAR-3, Ovary
Description: as §1
Effect of RO 48-8071 on ovarian cancer cell line OVCAR-3 viability. […]

[11] = system: BxPC-3 pancreatic cancer cells; assay: SRB cell viability assay, BxPC-3; assay type: cell-based; conditions: Homo sapiens, BxPC-3, Pancreas
Description: as §1
Effect of RO 48-8071 on pancreatic cancer cell line BxPC-3 viability. […]

[12] = system: PC-3 human prostate cancer xenograft; assay: PC-3 prostate tumor xenograft in nude mice
Description: Male athymic nu/nu nude mice, 6 weeks-old (21-25 g) were purchased from Harlan Laboratories, Inc. Human prostate cancer PC-3 cells, […] in 0.15 ml solution mixed with matrigel and DMEM/F12 medium (1/1, v/v) were injected into each flank of mouse subcutaneously, and both flanks of each mouse were injected. When tumor volume reached around 100 mm3, animals were randomly assigned to three groups and the treatment started with Ro 48-8071 (5 mg/kg/day or 20 mg/kg/day) via tail-vein injection for five days, followed by same treatment every other day for seven additional times as shown in the FIG. 14A. Animals in control group received the vehicle alone under identical conditions.

[13] = 24 hours, read-out: IC50 (μM) (24 hours)
[14] = 48 hours, read-out: IC50 (μM) (48 hours)

**Q.** Which results are given for `C=CCN(C)CCCCCCOc1ccc(C(=O)c2ccc(Br)cc2)c(F)c1` [Ro 48-8071, 4′-[6-(Allylmethylamino)hexyloxy]-4-bromo-2′-fluorobenzophenone fumarate]?
**A.** IC50 [1, 13]: 12.3 ± 0.585 µM; IC50 [1, 14]: 6.33 ± 0.344 µM; IC50 [2, 13]: 14.6 ± 0.417 µM; IC50 [2, 14]: 11.6 ± 0.336 µM; IC50 [3, 13]: 11 ± 0.289 µM; IC50 [3, 14]: 7.63 ± 0.304 µM; IC50 [4, 13]: 15.8 ± 0.335 µM; IC50 [4, 14]: 12.7 ± 0.18 µM; IC50 [5, 13]: 17.8 ± 1.29 µM; IC50 [5, 14]: 11.1 ± 0.35 µM; IC50 ([6]; DU-145, 24 hours, read-out: IC50 (μM) (24 hours)): 13.5 ± 0.895 µM; IC50 ([6]; DU-145, 48 hours, read-out: IC50 (μM) (48 hours)): 8.61 ± 0.455 µM; IC50 [7, 13]: 11.5 ± 0.243 µM; IC50 [7, 14]: 6.92 ± 0.41 µM; IC50 [8, 13]: 14.2 ± 1.28 µM; IC50 [8, 14]: 10.3 ± 0.303 µM; IC50 [9, 13]: 13.5 ± 0.928 µM; IC50 [9, 14]: 9.26 ± 0.454 µM; IC50 [10, 13]: 20.5 ± 0.325 µM; IC50 [10, 14]: 11.3 ± 0.33 µM; IC50 [11, 13]: 11.4 ± 0.621 µM; IC50 [11, 14]: 7.11 ± 0.102 µM; tumor volume versus control group ([12]; 5 or 20 mg/kg/day, tail-vein injection, P<0.05 ANOVA, FIG. 14A): Significant differences compared with control group; toxicity at doses used for inhibiting tumor growth ([12]; PC-3 tumor-bearing nude mice): non-toxic; animal weight, control versus treated groups ([12]; PC-3 tumor-bearing nude mice, FIG. 14B): No significant difference
